Results taken from patent US10179790B2 (THOMAS HELLEDAYS STIFTELSE FOR MEDICINSK FORSKNING, priority 2014, dated 2019).

Key:
cancer cell = experiment: Cell viability assay (resazurin); format: cell-based; conditions: 72 h; 3 days with compound, resazurin fluorescence; cell line not named
Experimental: The utility of the compounds of the present invention can be illustrated, for example, by their activity in vitro in the cancer cell clonogenic and/or viability assay described below. The link between activity in tumor cell clonogenic assay and anti-tumor activity in the clinical setting has been well established in the art (e.g. see ref Silverstini et al Stem Cells 1993, 11(6), 258-35).
Cells are seeded into 96 well plates (1000-3000 cells/well) in DMEM GlutaMAX™ or other suitable media dependent on cell line and incubated overnight in 5% CO2, 37° C. Thereafter cells are treated with compound or vehicle and left in incubator for 3 days until staining with resazurin. Cells are incubated in resazurin (diluted in suitable media) at 37° C. for 2 hours before measuring the fluorescence (Ex544/Em590).
The compounds to be tested are nano-dispensed in 11 concentrations, directly in 384-well cell plates, with a final DMSO concentration <1%. Cells are seeded in cell plates, pre-dispensed with compounds, 50 μl/well (600-1200 cells/well). After 3 days culture in 5% CO2, 37° C., resazurin diluted in PBS is added, 10 μl/well, and cells are incubated 3 hours before measuring fluorescence (Ex544/Em590).

MTH1 = MTH1 (Homo sapiens, UniProt P36639); experiment: MTH1 enzymatic assay and IC50 value determination (malachite green, 96- and 384-well format); format: biochemical; conditions: hydrolysis of dGTP (100 μM), MTH1 6 nM, pyrophosphatase-coupled malachite green, 15 minutes at 22° C.
Experimental: MTH1 Enzymatic Assay and IC50 Value Determination
MTH1 catalyzes the hydrolysis of dGTP to dGMP and PPi. By coupling the reaction to pyrophosphatase added in excess PPi is converted to Pi that can be detected by using the malachite green assay reagent. Two different formats were used for IC50 determinations in the enzymatic assay, 96- and 384-well format. 96-Well Method:
Briefly, the compound to be analyzed is diluted in DMSO in a 1:3 dilution series generating 12 different compound concentrations giving a final DMSO concentration of 1% in the assay well. MTH1 diluted in assay buffer (100 mM Tris-acetate, 40 mM NaCl, 10 mM magnesium acetate, 1 mM DTT and 0.005% Tween 20) fortified with E. coli pyrophosphatase (0.2 U/ml) is added to a final concentration of 6 nM. dGTP diluted in assay buffer is added to a final concentration of 100 μM. The reaction mixture is incubated for 15 minutes at 22° C. To 100 μl reaction mixture, 25 μl Malachite green assay regent (0.095% Malachite green in 17% H2SO4, 1.5% Ammonium molybdate, 0.17% Tween 20) is added, followed by incubation with shaking for 15 minutes at 22° C. The absorbance of the assay plate is read at 630 nm using a Hidex Sense Multilabel plate reader. The IC50 value is determined by fitting a dose response curve to the data points using nonlinear regression analysis and the equation Y=Bottom+(Top−Bottom)/(1+10^((Log IC50−X)*HillSlope)), where Y is the read absorbance at 630 nm and X is log [compound].
The compounds to be tested are nano-dispensed, in 11 concentrations, directly in assay plates, with a final DMSO concentration <1%. The protocol and the reaction mixture are the same as for the 96-well assay, with a total reaction volume of 50 μl/well to which 10 μl of Malachite green reagent is added. All additions to the assay plates are made with multidrop.

Row | IC50 (cancer cell) [nM] | IC50 (MTH1) [nM] | Structure (SMILES)
1 |  | < 200 | Cc1c(Cl)cccc1-c1cc(NCCOc2ccc(C(F)(F)F)cn2)nc(N)n1 [Example 199, 6-(3-chloro-2-methylphenyl)-N4-(2-{[5-(trifluoromethyl)pyridin-2-yl]oxy}ethyl)pyrimidine-2,4-diamine]
2 |  | < 200 | COc1c(Cl)ccc(-c2cc(NCCc3ccc(S(N)(=O)=O)cc3)nc(N)n2)c1Cl [Example 99, 4-[2-[[2-amino-6-(2,4-dichloro-3-methoxy-phenyl)pyrimidin-4-yl]amino]ethyl]benzenesulfonamide]
3 |  | < 200 | CC(=O)c1sccc1-c1cc(NCCc2ccc(S(N)(=O)=O)cc2)nc(N)n1 [Example 10, 4-(2-{[6-(2-acetylthiophen-3-yl)-2-aminopyrimidin-4-yl]amino}ethyl)benzene-1-sulfonamide]
4 |  | < 200 | Cc1c(Cl)cccc1-c1cc(NCC(O)c2ccc(S(N)(=O)=O)cc2)nc(N)n1 (stereo not drawn) [Example 216, 4-(2-(2-Amino-6-(3-chloro-2-methylphenyl)pyrimidin-4-ylamino)-1-hydroxyethyl)benzenesulfonamide]
5 |  | < 200 | CS(=O)(=O)N1CC=C(c2cc(NCCc3ccc(S(N)(=O)=O)cc3)nc(N)n2)CC1 [Example 137, 4-(2-{[2-amino-6-(1-methanesulfonyl-1,2,3,6-tetrahydropyridin-4-yl)pyrimidin-4-yl]amino}ethyl)benzene-1-sulfonamide]
6 |  | < 200 | Cc1c(Cl)cccc1-c1cc(NCC(O)c2ccc(S(C)(=O)=O)cc2)nc(N)n1 (stereo not drawn) [Example 215, 2-(2-amino-6-(3-chloro-2-methylphenyl)pyrimidin-4-ylamino)-1-(4-(methylsulfonyl)phenyl)ethanol]
7 |  | < 200 | Nc1nc(NCCc2ccc(S(N)(=O)=O)cc2)cc(C2=CCN(C(=O)CC3CCCC3)CC2)n1 [Example 140, 4-[2-({2-amino-6-[1-(2-cyclopentylacetyl)-1,2,3,6-tetrahydropyridin-4-yl]pyrimidin-4-yl}amino)ethyl]benzene-1-sulfonamide]
8 |  | < 200 | Cc1cccc(-c2cc(NCCNc3ncnc4[nH]cnc34)nc(N)n2)c1C [Example 51, 6-(2,3-dimethylphenyl)-4-N-{2-[(9H-purin-6-yl)amino]ethyl}pyrimidine-2,4-diamine]
9 |  | < 200 | Nc1nc(NCCc2ccc(S(N)(=O)=O)cc2)cc(-c2cccc(O)c2)n1 [Example 27, 4-(2-{[2-amino-6-(3-hydroxyphenyl)pyrimidin-4-yl]amino}ethyl)benzene-1-sulfonamide]
10 |  | < 200 | Cc1c(Cl)cccc1-c1cc(NCCc2cccc(C(N)=O)c2)nc(N)n1 [Example 88, 3-[2-[[2-amino-6-(3-chloro-2-methyl-phenyl)pyrimidin-4-yl]amino]ethyl]benzamide]
11 |  | < 200 | Cc1c(Cl)cccc1-c1cc(NCCSCc2ccc(CN(C)C)o2)nc(N)n1 [Example 175, 6-(3-chloro-2-methyl-phenyl)-N4-[2-[[5-[(dimethylamino)methyl]-2-furyl]methylsulfanyl]ethyl]pyrimidine-2,4-diamine]

Continued, compound first:

Row | Structure (SMILES) | IC50 (cancer cell) [nM] | IC50 (MTH1) [nM]
12 | Cc1cccc(-c2cc(NCCc3ccc(NS(C)(=O)=O)cc3)nc(N)n2)c1C [Example 20, N-[4-(2-{[2-amino-6-(2,3-dimethylphenyl)pyrimidin-4-yl]amino}ethyl)phenyl]methanesulfonamide] | < 500 | < 200
13 | Cc1c(Cl)cccc1-c1cc(NCCc2ccc(C(=O)N3CCOCC3)cc2)nc(N)n1 [Example 108, [4-[2-[[2-amino-6-(3-chloro-2-methyl-phenyl)pyrimidin-4-yl]amino]ethyl]phenyl]-morpholino-methanone] | < 500 | < 200
14 | Cc1cccc(-c2cc(NCCNc3cccc(S(C)(=O)=O)c3)nc(N)n2)c1C [Example 40, 6-(2,3-dimethylphenyl)-4-N-{2-[(3-methanesulfonylphenyl)amino]ethyl}pyrimidine-2,4-diamine] | < 500 | < 200
15 | COC(=O)c1ccc(CSCCNc2cc(-c3cccc(Cl)c3C)nc(N)n2)cc1 [Example 181, methyl 4-[2-[[2-amino-6-(3-chloro-2-methyl-phenyl)pyrimidin-4-yl]amino]ethylsulfanylmethyl]benzoate] | < 500 | < 200
16 | Nc1nc(NCCc2ccc(S(N)(=O)=O)cc2)cc(C2=CCCCCC2)n1 [Example 132, 4-(2-{[2-amino-6-(cyclohept-1-en-1-yl)pyrimidin-4-yl]amino}ethyl)benzene-1-sulfonamide] |  | < 200
17 | Cc1cccc(-c2cc(NCCNc3ccc(C(N)=O)cn3)nc(N)n2)c1C [Example 5, 6-[(2-{[2-amino-6-(2,3-dimethylphenyl)pyrimidin-4-yl]amino}ethyl)amino]pyridine-3-carboxamide] |  | < 200
18 | CC(C)(C)OC(=O)NCc1ccc(-c2cc(NCCc3ccc(S(C)(=O)=O)cc3)nc(N)n2)s1 [Example 18, tert-butyl N-{[5-(2-amino-6-{[2-(4-methanesulfonylphenyl)ethyl]amino}pyrimidin-4-yl)thiophen-2-yl]methyl}carbamate] |  | < 200
19 | Cc1c(Cl)cccc1-c1cc(NCCNc2ccc(NC(=O)OC(C)(C)C)cn2)nc(N)n1 [Example 157, tert-butyl N-[6-[2-[[2-amino-6-(3-chloro-2-methyl-phenyl)pyrimidin-4-yl]amino]ethylamino]-3-pyridyl]carbamate] |  | < 200
20 | Nc1nc(NCCc2ccc(S(N)(=O)=O)cc2)cc(C2CCCCCC2)n1 [Example 134, 4-{2-[(2-amino-6-cycloheptylpyrimidin-4-yl)amino]ethyl}benzene-1-sulfonamide] |  | < 200
21 | CS(=O)(=O)c1ccc(CCNc2cc(-c3cccc(Cl)c3CO)nc(N)n2)cc1 [Example 217, (2-(2-Amino-6-(4-(methylsulfonyl)phenethylamino)pyrimidin-4-yl)-6-chlorophenyl)methanol] |  | < 200
22 | Cc1c(Cl)cccc1-c1cc(N[C@H]2C[C@@H]2c2ccc(S(N)(=O)=O)cc2)nc(N)n1 [Example 15, 4-[(1R,2S)-2-{[2-amino-6-(3-chloro-2-methylphenyl)pyrimidin-4-yl]amino}cyclopropyl]benzene-1-sulfonamide] |  | < 200
23 | Cc1cc(-c2cc(NCCNc3ccc(NS(C)(=O)=O)cn3)nc(N)n2)c(C)cc1F [Example 12, N-{6-[(2-{[2-amino-6-(4-fluoro-2,5-dimethylphenyl)pyrimidin-4-yl]amino}ethyl)amino]pyridin-3-yl}methanesulfonamide] |  | < 200
24 | C[S+]([O-])c1ccc(NC(=O)NCCCCNc2cc(-c3cccc(Cl)c3Cl)nc(N)n2)cc1 (stereo not drawn) [Example 7, 3-(4-{[2-amino-6-(2,3-dichlorophenyl)pyrimidin-4-yl]amino}butyl)-1-(4-methanesulfinylphenyl)urea] |  | < 200
25 | Cc1c(Cl)cccc1-c1cc(NCCNc2ccc(NC(=O)NC(C)(C)C)cn2)nc(N)n1 [Example 156, 1-[6-[2-[[2-amino-6-(3-chloro-2-methyl-phenyl)pyrimidin-4-yl]amino]ethylamino]-3-pyridyl]-3-tert-butyl-urea] |  | < 200
26 | Cc1ccc(S(=O)(=O)N2CC=C(c3cc(NCCc4ccc(S(C)(=O)=O)cc4)nc(N)n3)CC2)cc1 [Example 130, 4-N-[2-(4-methanesulfonylphenyl)ethyl]-6-[1-(4-methylbenzenesulfonyl)-1,2,3,6-tetrahydropyridin-4-yl]pyrimidine-2,4-diamine] |  | < 200
27 | Nc1nc(NCCc2ccc(S(N)(=O)=O)cc2)cc(-c2cccc3[nH]ccc23)n1 [Example 69, 4-(2-{[2-amino-6-(1H-indol-4-yl)pyrimidin-4-yl]amino}ethyl)benzene-1-sulfonamide] |  | < 200
28 | Cc1c(Cl)cccc1-c1cc(NCC#CCSc2cccc(C(=O)O)c2)nc(N)n1 [Example 193] |  | < 200
29 | CC(=O)N1CC=C(c2cc(NCCc3ccc(S(N)(=O)=O)cc3)nc(N)n2)CC1 [Example 135, 4-(2-{[6-(1-acetyl-1,2,3,6-tetrahydropyridin-4-yl)-2-aminopyrimidin-4-yl]amino}ethyl)benzene-1-sulfonamide] |  | < 200
